Data reported in US6642225B2, “Diazacycloalkanedione derivatives” (Novartis AG, priority 2000, dated 2003).

How the values were obtained:
[1] = target: T1, human LFA-1 (Homo sapiens, UniProt P20701); assay: Cell free assay: binding of soluble human ICAM-1 to immobilized human LFA-1
T1 construct: endogenous in cells; host or cells: JY cells (human lymphoblastoid B cell line)
Experimental: A. In Vitro: Cell Free Assay
The assay measures the binding of soluble human ICAM-1 to immobilized human LFA-1. LFA-1 is purified from JY cells, a human lymphoblastoid B cell-line, by immunoaffinity chromatography as described by Dustin et al. (J. Immunol. 148, 2654-2663, 1992). ICAM-1 mouse Cκ fusion protein (ICAM-1) is produced using the baculovirus system as described by Weitz-Schmidt et al. (Anal. Biochem.238, 184-190, 1996).
Purified LFA-1 is diluted 1:20 in phosphate buffered saline (PBS) containing 2 mM MgCl2, pH 7.4 and coated onto microtitre plates (Nunc) at 37° C. for 3 h. Plates are blocked with 1% heat-treated BSA in PBS for 2 hours at 37° C. followed by a washing step using PBS, 2 mM MgCl2, 1% fetal calf serum, pH 7.4 (assay buffer). Compounds dissolved at 10 mM in DMSO are diluted in assay buffer and added to the plates. Biotinylated recombinant ICAM-1 in assay buffer (6 μg/ml) is added and allowed to bind at 37° C. for one hour. After incubation, wells are washed with assay buffer. Streptavidin-peroxidase diluted 1:5000 in assay buffer is added and incubated for 45 min at 37° C. Plates are then washed with assay buffer and 2,2′-azino-bis(3-ethylbenzothiazoline-6 sulfonic acid) diammonium salt substrate solution is added to each well. The reaction is stopped after 20 min and bound ICAM-1 is determined by measuring the optical density at 405 nm in a microplate reader.

[2] = system: carrageenan paw swelling; assay: Rat carrageenan edema model; format: in vivo, OFA rats; details: about 0.3 to 30 mg/kg p.o.
Experimental: iii) Rat Carrageenan Edema Model Male OFA rats are treated orally with the compound to be tested or vehicle (saline). One to three hours later (0 hours) the rats receive a 100 μl intra-plantar injection of a 1% w/v carrageenan solution in 0.9% saline in the hind paw and the diameter of the paw is measured by means of a micro-calliper. The paw diameter measurements are repeated at times +3 and +5 hours after injection of the carrageenan.

[3] = system: mBSA antigen-induced arthritis; assay: Mouse antigen-induced arthritis model; format: in vivo, OFA-1 mice; details: about 0.3 to 30 mg/kg p.o.
Experimental: iv) Mouse Antigen-induced Arthritis Model The test for rheumatoid arthritis is carried out by a modification of that described by Van de Loo et al., Arthritis Rheum. 1995; 35:164-172, e.g., as follows: Female OFA-1 mice are sensitised intradermally on the back at two sites to methylated bovine serum albumin (mBSA) homogenised 1:1 with complete Freund's adjuvant on days −21 and −14 (0.1 ml containing 1 mg/ml mBSA). On day 0, the right knee receives 10 μl of 10 mg/ml mBSA in 5% glucose solution (antigen injected knee), while the left knee receives 10 μl of 5% glucose solution alone (vehicle injected knee). The diameters of the left and right knees are then measured using calipers immediately after the intra-articular injections and again on days 2, 4, 7, 9, 11 and 14. […] Right knee swelling is calculated as a ratio of left knee swelling, and the R/L knee swelling ratio plotted against time to give Area Under the Curve (AUC) graphs for control and treatment groups. The percentage inhibition of the individual treatment group AUCs are calculated vs the control group AUC (0% inhibition) using an Excel spreadsheet. […] After staining, the slides are number coded as left knee/right knee pairs from each animal and scored in a blinded fashion for inflammatory cell infiltrate/hyperplasia, joint damage/erosions and cartilage proteoglycan loss.

T1 sequence (P20701 26-1170): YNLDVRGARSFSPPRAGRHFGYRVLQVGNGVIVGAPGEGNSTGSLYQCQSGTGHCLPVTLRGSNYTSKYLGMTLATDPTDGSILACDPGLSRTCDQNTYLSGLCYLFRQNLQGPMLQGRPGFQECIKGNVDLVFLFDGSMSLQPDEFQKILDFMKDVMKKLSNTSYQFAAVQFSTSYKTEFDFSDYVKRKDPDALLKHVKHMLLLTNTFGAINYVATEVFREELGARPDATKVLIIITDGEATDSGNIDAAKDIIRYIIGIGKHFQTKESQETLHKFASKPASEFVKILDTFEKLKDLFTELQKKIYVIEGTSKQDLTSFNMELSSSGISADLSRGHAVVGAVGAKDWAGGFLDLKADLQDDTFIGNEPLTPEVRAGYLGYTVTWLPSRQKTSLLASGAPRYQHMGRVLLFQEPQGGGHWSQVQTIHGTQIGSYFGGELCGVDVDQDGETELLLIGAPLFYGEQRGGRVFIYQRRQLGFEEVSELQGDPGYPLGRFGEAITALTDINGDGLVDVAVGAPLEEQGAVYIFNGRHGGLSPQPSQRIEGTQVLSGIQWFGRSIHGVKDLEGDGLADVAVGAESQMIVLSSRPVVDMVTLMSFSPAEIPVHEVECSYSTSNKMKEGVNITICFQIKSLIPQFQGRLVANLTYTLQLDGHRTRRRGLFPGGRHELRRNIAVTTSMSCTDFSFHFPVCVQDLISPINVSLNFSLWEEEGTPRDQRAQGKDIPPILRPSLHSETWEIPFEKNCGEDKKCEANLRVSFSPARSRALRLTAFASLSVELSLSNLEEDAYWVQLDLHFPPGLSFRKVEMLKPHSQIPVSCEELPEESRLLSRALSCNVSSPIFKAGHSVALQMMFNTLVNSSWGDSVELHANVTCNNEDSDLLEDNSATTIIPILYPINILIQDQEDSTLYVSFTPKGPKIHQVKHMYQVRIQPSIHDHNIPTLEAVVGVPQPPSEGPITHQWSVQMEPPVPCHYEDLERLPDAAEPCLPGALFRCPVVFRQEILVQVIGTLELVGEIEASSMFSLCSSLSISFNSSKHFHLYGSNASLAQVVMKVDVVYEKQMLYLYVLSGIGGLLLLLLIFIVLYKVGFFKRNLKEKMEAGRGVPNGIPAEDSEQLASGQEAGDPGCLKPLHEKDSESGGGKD
T1 sequence (P05107 23-769 partner): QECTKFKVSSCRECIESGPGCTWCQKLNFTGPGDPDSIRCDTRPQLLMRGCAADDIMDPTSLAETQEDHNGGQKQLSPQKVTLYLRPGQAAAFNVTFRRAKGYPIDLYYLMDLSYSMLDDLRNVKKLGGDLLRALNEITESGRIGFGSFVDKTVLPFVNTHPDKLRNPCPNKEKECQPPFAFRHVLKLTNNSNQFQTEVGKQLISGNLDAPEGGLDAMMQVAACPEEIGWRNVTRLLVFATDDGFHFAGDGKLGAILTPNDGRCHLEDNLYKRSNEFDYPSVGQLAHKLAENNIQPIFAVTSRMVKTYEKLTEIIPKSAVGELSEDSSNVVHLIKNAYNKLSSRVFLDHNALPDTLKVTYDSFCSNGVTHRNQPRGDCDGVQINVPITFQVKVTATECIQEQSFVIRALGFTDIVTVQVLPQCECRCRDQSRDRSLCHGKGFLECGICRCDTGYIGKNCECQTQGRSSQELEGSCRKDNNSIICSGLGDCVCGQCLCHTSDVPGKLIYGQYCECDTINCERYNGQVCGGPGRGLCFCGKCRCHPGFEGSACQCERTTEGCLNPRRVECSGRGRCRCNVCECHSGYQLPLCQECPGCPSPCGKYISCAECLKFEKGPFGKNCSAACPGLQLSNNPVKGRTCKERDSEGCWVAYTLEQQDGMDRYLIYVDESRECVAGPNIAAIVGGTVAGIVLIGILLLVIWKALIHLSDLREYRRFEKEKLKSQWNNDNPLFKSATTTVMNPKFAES

IC50 [1]: ~30 nM
Structure (SMILES): CNC(=O)[C@H](Cc1ccc2ccccc2c1)N1CCC(=O)N(Cc2cnc3ccccc3c2)[C@@H](CC(C)C)C1=O [Example 1, 1H-1,4-Diazepine-1-acetamide, hexahydro-N-methyl-3-(2-methylpropyl)-α-[(2-naphthalenyl)methyl]-2,5-dioxo-4-[(3-quinolinyl)methyl]-, (αS,3S)-]
inhibition of paw swelling [2]: inhibits paw swelling
inhibition of knee swelling [3]: inhibits knee swelling
histological damage to the knee ([3]; day 14 histology): significantly reduces the histological damage to the knee
